Literature values in patent EP2908850B1, “A COMPOSITION COMPRISING GLUCORAPHANIN, MYROSINASE AND A BUFFERED SOLUTION FOR USE IN THE TREATMENT OF NEURODEGENERATIVE DISEASES” (Bramanti, Placido, priority 2012, dated 2014).

Conditions: state of the art statement

solubility in water: slightly soluble in water | stability: unstable
SMILES: C[S+]([O-])CCCCN=C=S (racemic) [RS,SS-SFN, sulforaphane]
